Measurements reported in ChEMBL document CHEMBL6103672, “Discovery of HMPL-306 (Ranosidenib), a New Potent and Selective Dual Inhibitor of Mutant IDH1 and 2 in Clinical Development for Cancer Treatment” (ACS Med Chem Lett, 2025).

System: not listed separately
Assay: Apparent permeability across basolateral to apical side in human Caco-2 cells at 10 uM incubated for 1 hrs by LC-MS/MS analysis
Details: not given

Papp B→A at 1 h, 10 µM [nm/s]	Structure (SMILES)
341	CC(C)Nc1nc(N[C@H](C)C(F)(F)F)nc(C2=C[C@@H](O)CCC2)n1
33	CC(C)Nc1nc(N[C@H](C)C(F)(F)F)nc(C2=CCCCC2)n1
40	CC(C)Nc1nc(N[C@H](C)C(F)(F)F)nc(C2=CC(F)(F)CCC2)n1
260	C[C@@H](Nc1nc(N[C@H](C)C(F)(F)F)nc(C2=C(F)[C@H](O)CCC2)n1)C(F)(F)F
251	C[C@@H](Nc1nc(N[C@H](C)C(F)(F)F)nc(C2=C(F)C(O)C(F)(F)CC2)n1)C(F)(F)F (mixture of isomers)
346	CC(C)Nc1nc(N[C@H](C)C(F)(F)F)nc(C2=CC(O)CCC2)n1 (mixture of isomers)
286	C[C@@H](Nc1nc(N[C@H](C)C(F)(F)F)nc(C2=CC(O)CCC2)n1)C(F)(F)F (mixture of isomers)
155	C[C@@H](Nc1nc(N[C@H](C)C(F)(F)F)nc(C2=C(F)C(O)CCC2)n1)C(F)(F)F (mixture of isomers)
52	CC(C)Nc1nc(N[C@H](C)C(F)(F)F)nc(C2=CC(F)CCC2)n1 (mixture of isomers)

System: not listed separately
Assay: Metabolic stability in male SD rat liver microsomes assessed as parent compound remaining at 1 uM measured after 30 mins in presence of NADPH by LC-MS analysis
Assay type: ADME, Microsome
Details: Sprague-Dawley, read-out: Stability

remaining at 0.5 h, 1 µM [%]	Structure (SMILES)
65	CC(C)Nc1nc(N[C@H](C)C(F)(F)F)nc(C2=C[C@@H](O)CCC2)n1
13.6	CC(C)Nc1nc(N[C@H](C)C(F)(F)F)nc(C2=CCCCC2)n1
102	C[C@@H](Nc1nc(N[C@H](C)C(F)(F)F)nc(C2=C(F)C(O)C(F)(F)CC2)n1)C(F)(F)F (mixture of isomers)
74.1	CC(C)Nc1nc(N[C@H](C)C(F)(F)F)nc(C2=CC(O)CCC2)n1 (mixture of isomers)
79.8	C[C@@H](Nc1nc(N[C@H](C)C(F)(F)F)nc(C2=CC(O)CCC2)n1)C(F)(F)F (mixture of isomers)
99	C[C@@H](Nc1nc(N[C@H](C)C(F)(F)F)nc(C2=C(F)C(O)CCC2)n1)C(F)(F)F (mixture of isomers)
25.1	CC(C)Nc1nc(N[C@H](C)C(F)(F)F)nc(C2=CC(F)CCC2)n1 (mixture of isomers)

System: not listed separately
Assay: Apparent permeability across apical to basolateral side in human Caco-2 cells at 10 uM incubated for 1 hrs by LC-MS/MS analysis
Details: not given

Papp A→B at 1 h, 10 µM [nm/s]	Structure (SMILES)
554	CC(C)Nc1nc(N[C@H](C)C(F)(F)F)nc(C2=C[C@@H](O)CCC2)n1
9	CC(C)Nc1nc(N[C@H](C)C(F)(F)F)nc(C2=CCCCC2)n1
22	CC(C)Nc1nc(N[C@H](C)C(F)(F)F)nc(C2=CC(F)(F)CCC2)n1
600	C[C@@H](Nc1nc(N[C@H](C)C(F)(F)F)nc(C2=C(F)[C@H](O)CCC2)n1)C(F)(F)F
504	C[C@@H](Nc1nc(N[C@H](C)C(F)(F)F)nc(C2=C(F)C(O)C(F)(F)CC2)n1)C(F)(F)F (mixture of isomers)
533	CC(C)Nc1nc(N[C@H](C)C(F)(F)F)nc(C2=CC(O)CCC2)n1 (mixture of isomers)
449	C[C@@H](Nc1nc(N[C@H](C)C(F)(F)F)nc(C2=CC(O)CCC2)n1)C(F)(F)F (mixture of isomers)
686	C[C@@H](Nc1nc(N[C@H](C)C(F)(F)F)nc(C2=C(F)C(O)CCC2)n1)C(F)(F)F (mixture of isomers)
51	CC(C)Nc1nc(N[C@H](C)C(F)(F)F)nc(C2=CC(F)CCC2)n1 (mixture of isomers)

System: not listed separately
Assay: Inhibition of IDH1 R132H mutant in human U-87 MG cells incubated for 72 hrs by measuring 2-HG production by fluorescence based analysis
Assay type: functional, cell-based, U-87MG ATCC
Details: Homo sapiens, U-87 MG, 72 h

IC50 [µM]	Structure (SMILES)
0.372	CC(C)Nc1nc(N[C@H](C)C(F)(F)F)nc(C2=C[C@@H](O)CCC2)n1
3.26	C[C@@H](Nc1nc(N[C@H](C)C(F)(F)F)nc(C2=C(F)[C@H](O)CCC2)n1)C(F)(F)F
0.658	CC(C)Nc1nc(N[C@H](C)C(F)(F)F)nc(C2=CC(O)CCC2)n1 (mixture of isomers)
0.434	C[C@@H](Nc1nc(N[C@H](C)C(F)(F)F)nc(C2=CC(O)CCC2)n1)C(F)(F)F (mixture of isomers)
0.365	C[C@@H](Nc1nc(N[C@H](C)C(F)(F)F)nc(C2=C(F)C(O)CCC2)n1)C(F)(F)F (mixture of isomers)

Same assay, conditions: u-87mg atcc

IC50 [µM]	Structure (SMILES)
0.21	C[C@@H](Nc1nc(N[C@H](C)C(F)(F)F)nc(C2=C(F)C(O)C(F)(F)CC2)n1)C(F)(F)F (mixture of isomers)

System: not listed separately
Assay: Metabolic stability in male ICR mouse liver microsomes assessed as parent compound remaining at 1 uM measured after 30 mins in presence of NADPH by LC-MS analysis
Assay type: ADME, Microsome
Details: read-out: Stability

remaining at 0.5 h, 1 µM [%]	Structure (SMILES)
48.1	CC(C)Nc1nc(N[C@H](C)C(F)(F)F)nc(C2=C[C@@H](O)CCC2)n1
12.5	CC(C)Nc1nc(N[C@H](C)C(F)(F)F)nc(C2=CCCCC2)n1
95.2	C[C@@H](Nc1nc(N[C@H](C)C(F)(F)F)nc(C2=C(F)C(O)C(F)(F)CC2)n1)C(F)(F)F (mixture of isomers)
44.1	CC(C)Nc1nc(N[C@H](C)C(F)(F)F)nc(C2=CC(O)CCC2)n1 (mixture of isomers)
58.2	C[C@@H](Nc1nc(N[C@H](C)C(F)(F)F)nc(C2=CC(O)CCC2)n1)C(F)(F)F (mixture of isomers)
83.8	C[C@@H](Nc1nc(N[C@H](C)C(F)(F)F)nc(C2=C(F)C(O)CCC2)n1)C(F)(F)F (mixture of isomers)
16.8	CC(C)Nc1nc(N[C@H](C)C(F)(F)F)nc(C2=CC(F)CCC2)n1 (mixture of isomers)

Biological target: Isocitrate dehydrogenase [NADP], mitochondrial (Homo sapiens, UniProt P48735, R140Q)
Assay: Inhibition of IDH2 R140Q mutant (unknown origin) using alpha-ketoglutarate as substrate preincubated with compound for 16 hrs followed by substrate addition and measured after 1 hr in presence of NADPH by fluorescence based analysis
Details: not given

Sequence of Isocitrate dehydrogenase [NADP], mitochondrial (P48735 40-452 R140Q limits assumed): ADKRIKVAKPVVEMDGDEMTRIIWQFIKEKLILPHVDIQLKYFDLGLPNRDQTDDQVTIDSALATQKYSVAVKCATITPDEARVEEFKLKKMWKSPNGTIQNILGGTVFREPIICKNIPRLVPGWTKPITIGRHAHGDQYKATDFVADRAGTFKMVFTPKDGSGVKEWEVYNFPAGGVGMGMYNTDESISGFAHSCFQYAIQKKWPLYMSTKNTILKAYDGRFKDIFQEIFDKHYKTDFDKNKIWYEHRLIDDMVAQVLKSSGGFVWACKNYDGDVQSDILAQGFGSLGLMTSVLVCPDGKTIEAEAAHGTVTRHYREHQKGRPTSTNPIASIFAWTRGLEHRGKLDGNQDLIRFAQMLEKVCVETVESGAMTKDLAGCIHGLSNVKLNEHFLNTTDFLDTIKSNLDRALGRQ

IC50 [µM]	Structure (SMILES)
0.016	CC(C)Nc1nc(N[C@H](C)C(F)(F)F)nc(C2=C[C@@H](O)CCC2)n1
0.021	CC(C)Nc1nc(N[C@H](C)C(F)(F)F)nc(C2=CCCCC2)n1
0.023	CC(C)Nc1nc(N[C@H](C)C(F)(F)F)nc(C2=CC(F)(F)CCC2)n1
0.028	C[C@@H](Nc1nc(N[C@H](C)C(F)(F)F)nc(C2=C(F)C(O)C(F)(F)CC2)n1)C(F)(F)F (mixture of isomers)
0.041	CC(C)Nc1nc(N[C@H](C)C(F)(F)F)nc(C2=CC(O)CCC2)n1 (mixture of isomers)
0.035	C[C@@H](Nc1nc(N[C@H](C)C(F)(F)F)nc(C2=CC(O)CCC2)n1)C(F)(F)F (mixture of isomers)
0.054	C[C@@H](Nc1nc(N[C@H](C)C(F)(F)F)nc(C2=C(F)C(O)CCC2)n1)C(F)(F)F (mixture of isomers)
0.043	CC(C)Nc1nc(N[C@H](C)C(F)(F)F)nc(C2=CC(F)CCC2)n1 (mixture of isomers)

System: not listed separately
Assay: Inhibition of IDH2 R140Q mutant in human U-87 MG cells incubated for 72 hrs by measuring 2-HG production by fluorescence based analysis
Assay type: functional, cell-based, U-87MG ATCC
Details: Homo sapiens, U-87 MG, 72 h

IC50 [µM]	Structure (SMILES)
0.067	CC(C)Nc1nc(N[C@H](C)C(F)(F)F)nc(C2=C[C@@H](O)CCC2)n1
0.413	CC(C)Nc1nc(N[C@H](C)C(F)(F)F)nc(C2=CCCCC2)n1
0.504	CC(C)Nc1nc(N[C@H](C)C(F)(F)F)nc(C2=CC(F)(F)CCC2)n1
1.02	C[C@@H](Nc1nc(N[C@H](C)C(F)(F)F)nc(C2=C(F)[C@H](O)CCC2)n1)C(F)(F)F
0.137	CC(C)Nc1nc(N[C@H](C)C(F)(F)F)nc(C2=CC(O)CCC2)n1 (mixture of isomers)
0.086	C[C@@H](Nc1nc(N[C@H](C)C(F)(F)F)nc(C2=CC(O)CCC2)n1)C(F)(F)F (mixture of isomers)
0.137	C[C@@H](Nc1nc(N[C@H](C)C(F)(F)F)nc(C2=C(F)C(O)CCC2)n1)C(F)(F)F (mixture of isomers)
0.181	CC(C)Nc1nc(N[C@H](C)C(F)(F)F)nc(C2=CC(F)CCC2)n1 (mixture of isomers)

Same assay, conditions: u-87mg atcc

IC50 [µM]	Structure (SMILES)
0.094	C[C@@H](Nc1nc(N[C@H](C)C(F)(F)F)nc(C2=C(F)C(O)C(F)(F)CC2)n1)C(F)(F)F (mixture of isomers)
